# Laboratory results from patent US8956824B2, “Methods for identifying allosteric modulators of ship polypeptides” (British Columbia Cancer Agency Branch, priority 2006, dated 2015).
# Key:
# [1] = system: SHIP1+/+ and SHIP1−/− BMMCs; test: IgE+antigen-induced calcium flux in BMMCs; type: cell-based, mouse; details: 30 min pretreatment, DNP-HSA stimulation
# Description: Production of SHIP+/+ and SHIP−/− BMMCs and BMnφs. To obtain BMMCs, bone marrow cells were aspirated from 4 to 8 week old C57B16×129Sv mixed background mice and SHIP1+/+ and SHIP1−/− BMMCs prepared as described previously (17). After 8 weeks in IMDM+15% FCS (StemCell Technologies, Vancouver, Canada)+150 μM MTG+30 ng/ml IL-3 (BMMC medium) more than 99% of the cells were c-kit and FcεR1 positive as determined by flow cytometry with FITC-labeled anti-c-kit (BD Pharmingen, Mississauga, Canada) and FITC-labeled IgE (anti-Epo), respectively. BMmφs from SHIP1+/+ and SHIP1−/− mice were obtained and maintained in IMDM supplemented with 10% FCS, 150 μM MTG, 2% C127 cell conditioned medium as a source of macrophage colony stimulating factor (MCSF) (BMmφ medium).
# Stimulation of BMMCs by FcεR1 crosslinking. SHIP1+/+ and SHIP1−/− BMMCs were pre-loaded overnight in BMMC medium lacking IL-3 with 0.1 μg/ml anti-DNP IgE (SPE-7, Sigma, Oakville, Ont). […] Calcium influx was then monitored by spectrofluorometry as described previously (19). […] Total cell lysates were then prepared and analyzed for phospho-PKB, phospho-p38MAPK, phospho-MAPK, Grb-2 (Cell Signalling, Mississauga, Ont) and SHIP1 (18) by immunoblot analysis as described previously (20). […]
# SHIP2 enzyme = molecular target: T1, SHIP2 enzyme (Homo sapiens, UniProt O15357); test: In vitro SHIP enzyme assay, SHIP2; type: biochemical; details: FIG. 1B
# T1 construct: purchased Echelon Biosciences (Salt Lake City, Utah)
# T1 sequence (O15357 1-1258): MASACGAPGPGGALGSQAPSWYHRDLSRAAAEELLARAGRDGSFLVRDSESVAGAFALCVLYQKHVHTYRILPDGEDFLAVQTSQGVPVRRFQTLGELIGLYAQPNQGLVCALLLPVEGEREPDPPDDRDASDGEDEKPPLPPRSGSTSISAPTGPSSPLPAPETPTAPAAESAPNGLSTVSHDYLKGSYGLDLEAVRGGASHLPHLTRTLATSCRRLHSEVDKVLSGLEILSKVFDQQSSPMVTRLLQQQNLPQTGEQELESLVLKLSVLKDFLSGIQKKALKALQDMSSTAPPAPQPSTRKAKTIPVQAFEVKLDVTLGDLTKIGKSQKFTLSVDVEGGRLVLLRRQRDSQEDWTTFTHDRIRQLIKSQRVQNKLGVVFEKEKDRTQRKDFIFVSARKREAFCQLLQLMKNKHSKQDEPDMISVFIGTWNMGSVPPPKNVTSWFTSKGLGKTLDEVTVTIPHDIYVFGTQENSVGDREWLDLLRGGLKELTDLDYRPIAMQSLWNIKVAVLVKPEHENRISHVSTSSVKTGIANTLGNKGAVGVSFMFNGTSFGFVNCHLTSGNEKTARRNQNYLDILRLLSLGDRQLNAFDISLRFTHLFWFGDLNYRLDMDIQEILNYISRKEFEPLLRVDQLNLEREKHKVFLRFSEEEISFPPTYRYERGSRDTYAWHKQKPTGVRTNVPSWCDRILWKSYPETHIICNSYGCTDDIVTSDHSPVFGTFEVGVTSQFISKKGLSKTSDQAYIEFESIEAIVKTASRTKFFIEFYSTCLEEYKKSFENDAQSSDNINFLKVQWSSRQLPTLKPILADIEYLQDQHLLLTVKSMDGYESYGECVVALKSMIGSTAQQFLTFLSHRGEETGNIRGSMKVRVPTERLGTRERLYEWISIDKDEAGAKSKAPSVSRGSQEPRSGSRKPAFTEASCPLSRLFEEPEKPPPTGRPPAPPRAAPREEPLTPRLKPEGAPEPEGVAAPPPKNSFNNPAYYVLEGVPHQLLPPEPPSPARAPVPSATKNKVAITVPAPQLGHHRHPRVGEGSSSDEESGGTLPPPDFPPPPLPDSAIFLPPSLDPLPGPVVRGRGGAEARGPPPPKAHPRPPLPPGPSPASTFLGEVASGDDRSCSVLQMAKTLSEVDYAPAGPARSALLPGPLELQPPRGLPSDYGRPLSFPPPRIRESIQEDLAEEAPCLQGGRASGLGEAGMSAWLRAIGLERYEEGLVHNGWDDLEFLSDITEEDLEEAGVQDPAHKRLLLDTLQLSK
# Description: In vitro SHIP enzyme assay. The SHIP enzyme assay was performed in 96-well microtitre plates with 10 ng of enzyme/well in a total volume of 25 μL of 20 mM Tris HCl, pH 7.5 and 10 mM MgCl2. SHIP1 enzyme was incubated with test extracts (provided in DMSO) or vehicle for 15 mM at 23° C. before the addition of 100 μM inositol-1,3,4,5-tetrakisphosphate (Echelon Biosciences Inc, Salt Lake City, Utah). The reaction was allowed to proceed for 20 min at 37° C. and the amount of inorganic phosphate released assessed by the addition of Malachite Green reagent followed by an absorbance measurement at 650 nm (15). SHIP2 enzyme was purchased from Echelon Biosciences (Salt Lake City, Utah) and an equivalent amount of inositol phosphatase activity was used in the in vitro enzyme assay. Enzyme data are expressed as the mean of triplicates+/−SEM. Experiments were performed at least 3 times.
smiles,measurement,setting,value
Cc1cc(O)c(O)c2c1[C@]1(C)CC[C@H]3C(C)(C)CCC[C@]3(C)[C@H]1C2 [AQX-016A],"IgE+antigen-induced calcium entry, SHIP1+/+ vs SHIP1−/− mast cells",[1],inhibited IgE+antigen-induced calcium entry to a substantially greater degree in SHIP1+/+ than in SHIP1−/−
same,activation of SHIP1 versus SHIP2,SHIP2 enzyme,preferentially activates SHIP1 over SHIP2
